# Reference: US10668067B2, “Pyridine sulfonamides” (AMGEN INC., priority 2016, dated 2020)
# Target: human Nav1.7 (Homo sapiens (Human), UniProt Q15858)
# Experiment: Nav 1.7 In Vitro PX Assay (PatchXpress whole cell voltage clamp)
# Type: cell-based
# Settings: in-vitro Nav 1.7 PX data
# Summary of the method: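 Partially inactivated channels (20–50% inactivation at holding potential) probed by 20 ms pulses to −10 mV repeated at 0.1 Hz, in stable human Nav1.7 HEK293 cells.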
# Sequence of human Nav1.7 (Q15858 whole entry): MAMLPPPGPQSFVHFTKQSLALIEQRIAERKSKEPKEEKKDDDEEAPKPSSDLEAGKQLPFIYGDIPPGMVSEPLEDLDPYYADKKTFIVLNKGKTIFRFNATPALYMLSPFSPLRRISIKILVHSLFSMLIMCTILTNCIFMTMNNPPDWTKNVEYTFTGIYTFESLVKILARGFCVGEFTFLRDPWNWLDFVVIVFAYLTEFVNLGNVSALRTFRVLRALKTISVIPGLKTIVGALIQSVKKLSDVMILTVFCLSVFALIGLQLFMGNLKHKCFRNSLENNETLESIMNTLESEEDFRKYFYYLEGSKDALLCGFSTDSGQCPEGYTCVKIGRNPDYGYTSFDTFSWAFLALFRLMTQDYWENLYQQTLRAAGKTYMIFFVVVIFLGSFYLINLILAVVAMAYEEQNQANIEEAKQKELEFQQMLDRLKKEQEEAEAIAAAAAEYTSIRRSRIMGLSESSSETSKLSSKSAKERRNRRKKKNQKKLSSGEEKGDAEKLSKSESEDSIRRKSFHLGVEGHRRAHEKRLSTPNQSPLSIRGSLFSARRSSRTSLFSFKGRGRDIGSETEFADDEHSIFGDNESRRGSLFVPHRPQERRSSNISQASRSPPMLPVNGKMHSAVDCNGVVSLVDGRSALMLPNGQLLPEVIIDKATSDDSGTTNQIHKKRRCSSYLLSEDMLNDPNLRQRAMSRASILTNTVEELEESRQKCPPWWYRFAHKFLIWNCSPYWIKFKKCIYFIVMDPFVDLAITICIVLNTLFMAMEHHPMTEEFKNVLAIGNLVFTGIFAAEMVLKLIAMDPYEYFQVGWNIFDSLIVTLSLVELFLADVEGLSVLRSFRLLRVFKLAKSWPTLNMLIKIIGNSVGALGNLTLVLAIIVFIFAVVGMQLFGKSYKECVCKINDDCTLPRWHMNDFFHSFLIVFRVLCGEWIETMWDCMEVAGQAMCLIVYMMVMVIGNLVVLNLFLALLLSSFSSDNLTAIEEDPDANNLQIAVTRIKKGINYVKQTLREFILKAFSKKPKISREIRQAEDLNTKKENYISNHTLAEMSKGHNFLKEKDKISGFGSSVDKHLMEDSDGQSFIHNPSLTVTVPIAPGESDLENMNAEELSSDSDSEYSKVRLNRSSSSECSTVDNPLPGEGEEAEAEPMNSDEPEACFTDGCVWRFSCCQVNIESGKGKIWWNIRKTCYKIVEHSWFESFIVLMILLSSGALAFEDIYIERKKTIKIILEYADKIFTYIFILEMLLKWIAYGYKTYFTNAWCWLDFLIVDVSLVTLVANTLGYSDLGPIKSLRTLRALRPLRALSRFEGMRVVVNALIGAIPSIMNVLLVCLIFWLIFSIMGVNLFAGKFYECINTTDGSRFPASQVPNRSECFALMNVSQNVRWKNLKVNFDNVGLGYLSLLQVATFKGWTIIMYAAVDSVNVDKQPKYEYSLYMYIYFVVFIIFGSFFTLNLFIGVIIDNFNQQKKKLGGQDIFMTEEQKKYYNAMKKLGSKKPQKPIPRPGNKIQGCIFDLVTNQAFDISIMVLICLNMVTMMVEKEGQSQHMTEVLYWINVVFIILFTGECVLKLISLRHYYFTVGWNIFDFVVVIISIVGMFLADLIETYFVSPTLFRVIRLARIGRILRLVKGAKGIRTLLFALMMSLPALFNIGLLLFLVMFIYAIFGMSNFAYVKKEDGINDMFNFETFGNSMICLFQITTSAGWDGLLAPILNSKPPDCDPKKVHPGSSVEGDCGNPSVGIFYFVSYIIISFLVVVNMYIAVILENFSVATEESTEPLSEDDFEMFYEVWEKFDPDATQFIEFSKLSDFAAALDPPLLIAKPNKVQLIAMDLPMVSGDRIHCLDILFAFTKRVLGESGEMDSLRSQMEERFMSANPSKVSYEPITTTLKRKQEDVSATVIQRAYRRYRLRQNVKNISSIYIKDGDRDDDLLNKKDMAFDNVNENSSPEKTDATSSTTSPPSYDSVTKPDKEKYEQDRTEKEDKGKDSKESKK
row,Compound,IC50
1,"CNC(=O)N(c1ccc(S(=O)(=O)Nc2ccon2)cn1)c1cc(Cl)c(-c2ccc(F)c(C)c2)cc1OC [Example 1-28, 6-((2-chloro-4′-fluoro-5-methoxy-3′-methyl-4-biphenylyl)(methylcarbamoyl)amino)-N-3-isoxazolyl-3-pyridinesulfonamide]",58 nM
2,"CNC(=O)N(c1ccc(S(=O)(=O)Nc2ccon2)cn1)c1cc(F)c(-c2ccc(F)c(C(F)(F)F)c2)cc1OC [Example 1-26, 6-((2,4′-difluoro-5-methoxy-3′-(trifluoromethyl)-4-biphenylyl)(methylcarbamoyl)amino)-N-3-isoxazolyl-3-pyridinesulfonamide]",12 nM
3,"CNC(=O)N(c1ccc(S(=O)(=O)Nc2ncccn2)cn1)c1cc(F)c(-c2cccc(OC(F)(F)F)c2)cc1OC [Example 1-84, 6-((2-fluoro-5-methoxy-3′-(trifluoromethoxy)-4-biphenylyl)(methylcarbamoyl)amino)-N-2-pyrimidinyl-3-pyridinesulfonamide]",62 nM
4,"CNC(=O)N(c1ccc(S(=O)(=O)Nc2ncccn2)cn1)c1cc(Cl)c(-c2ccc(F)c(C(F)(F)F)c2)cc1OC [Example 3-7, 6-((2-chloro-4′-fluoro-5-methoxy-3′-(trifluoromethyl)-4-biphenylyl)(methylcarbamoyl)amino)-N-2-pyrimidinyl-3-pyridinesulfonamide]",28 nM
5,"CNC(=O)N(c1ccc(S(=O)(=O)Nc2ccon2)cn1)c1ccc(-c2ccc(F)c(C)c2)cc1OC [Example 1-71, 6-((4′-fluoro-3-methoxy-3′-methyl-4-biphenylyl)(methylcarbamoyl)amino)-N-3-isoxazolyl-3-pyridinesulfonamide]",398 nM
6,"CNC(=O)N(c1ccc(S(=O)(=O)Nc2ncccn2)cn1)c1cc(F)c(-c2ccc(F)c(C(F)F)c2)cc1OC [Example 2-2, 6-((3′-(difluoromethyl)-2,4′-difluoro-5-methoxy-4-biphenylyl)(methylcarbamoyl)amino)-N-2-pyrimidinyl-3-pyridinesulfonamide]",7 nM
7,"CNC(=O)N(c1ccc(S(=O)(=O)Nc2ccon2)cn1)c1cc(Cl)c(-c2cc(F)cc(C(F)(F)F)c2)cc1OC [Example 1-49, 6-((2-chloro-3′-fluoro-5-methoxy-5′-(trifluoromethyl)-4-biphenylyl)(methylcarbamoyl)amino)-N-3-isoxazolyl-3-pyridinesulfonamide]",28 nM
8,"CNC(=O)N(c1ccc(S(=O)(=O)Nc2cccnn2)cn1)c1cc(F)c(-c2ccc(Cl)c(C)c2)cc1OC [Example 1-2, 6-((4′-chloro-2-fluoro-5-methoxy-3′-methyl-4-biphenylyl)(methylcarbamoyl)amino)-N-3-pyridazinyl-3-pyridinesulfonamide]",106 nM
9,"CNC(=O)N(c1ccc(S(=O)(=O)Nc2ccon2)cn1)c1cc(F)c(-c2ccc(Cl)c(OC)c2)cc1OC [Example 1-35, 6-((4′-chloro-2-fluoro-3′,5-dimethoxy-4-biphenylyl)(methylcarbamoyl)amino)-N-3-isoxazolyl-3-pyridinesulfonamide]",185 nM
10,"CNC(=O)N(c1ccc(S(=O)(=O)Nc2ccon2)cn1)c1cc(Cl)c(-c2cc(OC)cc(C(F)(F)F)c2)cc1OC [Example 1-36, 6-((2-chloro-3′,5-dimethoxy-5′-(trifluoromethyl)-4-biphenylyl)(methylcarbamoyl)amino)-N-3-isoxazolyl-3-pyridinesulfonamide]",11 nM
11,"CNC(=O)N(c1ccc(S(=O)(=O)Nc2ccon2)cn1)c1cc(F)c(-c2ccc(C)c(F)c2)cc1OC [Example 1-15, 6-((2,3′-difluoro-5-methoxy-4′-methyl-4-biphenylyl)(methylcarbamoyl)amino)-N-3-isoxazolyl-3-pyridinesulfonamide]",124 nM
12,"CNC(=O)N(c1ccc(S(=O)(=O)Nc2ccon2)cn1)c1cc(F)c(-c2cccc(OC)c2)cc1OC [Example 1-8, 6-((2-fluoro-3′,5-dimethoxy-4-biphenylyl)(methylcarbamoyl)amino)-N-3-isoxazolyl-3-pyridinesulfonamide]",206 nM
13,"CNC(=O)N(c1ccc(S(=O)(=O)Nc2ccon2)cn1)c1cc(F)c(-c2cc(C)cc(Cl)c2)cc1OC [Example 1-19, 6-((3′-chloro-2-fluoro-5-methoxy-5′-methyl-4-biphenylyl)(methylcarbamoyl)amino)-N-3-isoxazolyl-3-pyridinesulfonamide]",47 nM
14,"CNC(=O)N(c1ccc(S(=O)(=O)Nc2ccon2)cn1)c1cc(Cl)c(-c2cccc(OC(F)(F)F)c2)cc1OC [Example 1-39, 6-((2-chloro-5-methoxy-3′-(trifluoromethoxy)-4-biphenylyl)(methylcarbamoyl)amino)-N-3-isoxazolyl-3-pyridinesulfonamide]",11 nM
15,"CNC(=O)N(c1ccc(S(=O)(=O)Nc2ccon2)cn1)c1cc(-c2cc(Cl)cc(OC)c2)c(Cl)cc1OC [Example 4-8, 6-((3′,6-dichloro-4,5′-dimethoxy-3-biphenylyl)(methylcarbamoyl)amino)-N-3-isoxazolyl-3-pyridinesulfonamide]",81 nM
16,"CNC(=O)N(c1ccc(S(=O)(=O)Nc2ncccn2)cn1)c1cc(F)c(-c2ccc(F)c(OCC(F)(F)F)c2)cc1OC [Example 1-88, 6-((2,4′-difluoro-5-methoxy-3′-(2,2,2-trifluoroethoxy)-4-biphenylyl)(methylcarbamoyl)amino)-N-2-pyrimidinyl-3-pyridinesulfonamide]",40 nM
17,"CNC(=O)N(c1ccc(S(=O)(=O)Nc2ccon2)cn1)c1cc(F)c(-c2cc(C)cc(F)c2)cc1OC [Example 1-18, 6-((2,3′-difluoro-5-methoxy-5′-methyl-4-biphenylyl)(methylcarbamoyl)amino)-N-3-isoxazolyl-3-pyridinesulfonamide]",146 nM
18,"CNC(=O)N(c1ccc(S(=O)(=O)Nc2ccon2)cn1)c1cc(Cl)c(-c2cc(OC)nc(C(F)(F)F)c2)cc1OC [Example 1-42, 6-((5-chloro-2-methoxy-4-(2-methoxy-6-(trifluoromethyl)-4-pyridinyl)phenyl)(methylcarbamoyl)amino)-N-3-isoxazolyl-3-pyridinesulfonamide]",29 nM
19,"CNC(=O)N(c1ccc(S(=O)(=O)Nc2ccon2)cn1)c1cc(Cl)c(-c2cccc(OC(C)C)c2)cc1OC [Example 1-48, 6-((2-chloro-5-methoxy-3′-(1-methylethoxy)-4-biphenylyl)(methylcarbamoyl)amino)-N-3-isoxazolyl-3-pyridinesulfonamide]",71 nM
20,"COc1cc(-c2cccc(OCC(F)(F)F)c2)c(Cl)cc1N(C(N)=O)c1ccc(S(=O)(=O)Nc2ccon2)cn1 [Example 5-5, 6-(carbamoyl(2-chloro-5-methoxy-3′-(2,2,2-trifluoroethoxy)-4-biphenylyl)amino)-N-3-isoxazolyl-3-pyridinesulfonamide]",16 nM
21,"CNC(=O)N(c1ccc(S(=O)(=O)Nc2ccon2)cn1)c1ccc(-c2ccc(Cl)c(C)c2)cc1OC [Example 1-73, 6-((4′-chloro-3-methoxy-3′-methyl-4-biphenylyl)(methylcarbamoyl)amino)-N-3-isoxazolyl-3-pyridinesulfonamide]",65 nM
22,"COc1cc(-c2cccc(C(F)(F)F)c2)c(Cl)cc1N(C(N)=O)c1ccc(S(=O)(=O)Nc2ccon2)cn1 [Example 5-1, 6-(1-(2-chloro-5-methoxy-3′-(trifluoromethyl)-[1,1′-biphenyl]-4-yl)ureido)-N-(isoxazol-3-yl)pyridine-3-sulfonamide]",7 nM
23,"CNC(=O)N(c1ccc(S(=O)(=O)Nc2cccc(F)n2)cn1)c1cc(Cl)c(-c2ccc(F)c(C(F)(F)F)c2)cc1OC [Example 3-9, 6-((2-chloro-4′-fluoro-5-methoxy-3′-(trifluoromethyl)-4-biphenylyl)(methylcarbamoyl)amino)-N-(6-fluoro-2-pyridinyl)-3-pyridinesulfonamide]",53 nM
24,"CNC(=O)N(c1ccc(S(=O)(=O)Nc2ccon2)cn1)c1cc(Cl)c(-c2ccc(F)c(Cl)c2)cc1OC [Example 1-60, 6-((2,3′-dichloro-4′-fluoro-5-methoxy-4-biphenylyl)(methylcarbamoyl)amino)-N-3-isoxazolyl-3-pyridinesulfonamide]",19 nM
25,"CNC(=O)N(c1ccc(S(=O)(=O)Nc2ccon2)cn1)c1cc(Cl)c(-c2ccc(Cl)c(OC)c2)cc1OC [Example 1-33, 6-((2,4′-dichloro-3′,5-dimethoxy-4-biphenylyl)(methylcarbamoyl)amino)-N-3-isoxazolyl-3-pyridinesulfonamide]",43 nM
26,"CNC(=O)N(c1ccc(S(=O)(=O)Nc2ccon2)cn1)c1cc(Cl)c(C#CC2CCCC2)cc1OC [Example 7, 6-((5-chloro-4-(cyclopentylethynyl)-2-methoxyphenyl)(methylcarbamoyl)amino)-N-3-isoxazolyl-3-pyridinesulfonamide]",68 nM
27,"CNC(=O)N(c1ccc(S(=O)(=O)Nc2ccon2)cn1)c1cc(Cl)c(-c2ccc(F)cc2)cc1OC [Example 1-44, 6-((2-chloro-4′-fluoro-5-methoxy-4-biphenylyl)(methylcarbamoyl)amino)-N-3-isoxazolyl-3-pyridinesulfonamide]",125 nM
28,"CNC(=O)N(c1ccc(S(=O)(=O)Nc2ccon2)cn1)c1cc(-c2cccc(F)c2)c(Cl)cc1OC [Example 4-7, 6-((6-chloro-3′-fluoro-4-methoxy-3-biphenylyl)(methylcarbamoyl)amino)-N-3-isoxazolyl-3-pyridinesulfonamide]",891 nM
29,"CNC(=O)N(c1ccc(S(=O)(=O)Nc2ccon2)cn1)c1cc(Cl)c(-c2cc(C(F)(F)F)cnc2OC)cc1OC [Example 1-40, 6-((5-chloro-2-methoxy-4-(2-methoxy-5-(trifluoromethyl)-3-pyridinyl)phenyl)(methylcarbamoyl)amino)-N-3-isoxazolyl-3-pyridinesulfonamide]",32 nM
30,"COc1cc(-c2cc(Cl)cc(C#N)c2)c(Cl)cc1N(C(N)=O)c1ccc(S(=O)(=O)Nc2ccon2)cn1 [Example 5-3, 6-(carbamoyl(2,3′-dichloro-5′-cyano-5-methoxy-4-biphenylyl)amino)-N-3-isoxazolyl-3-pyridinesulfonamide]",31 nM
